According to patent US20220112194A1, “COMPOUNDS TARGETING PRMT5” (ALIGOS THERAPEUTICS, INC., priority 2020, published 2022):

Experiments:
PRMT5/MEP50 [1] = molecular target: T1, PRMT5/MEP50 (Homo sapiens, UniProt O14744); test: PRMT5/MEP50 enzyme inhibition assay, Assay 2 (384-well, MALDI mass spectrometry, SAM, histone H4 1-21 peptide); assay type: biochemical; details: 1 μM SAM, 0.1 μM histone H4 1-21 peptide, 18-hour incubation at rt
Method: Compounds were tested for inhibition of methyltransferase activity in 384-well plate assay format using mass spectrometry technology. In this enzyme inhibition assay, compounds were tested in a 11-dose IC50 mode with 3-serial dilution, in duplicate, starting at 1, 10, or 100 μM. Reactions were carried out at 1 μM SAM and 0.1 μM histone H4 1-21 peptide as substrates for methyl transfer. Following an 18-hour incubation at rt, the reaction was stopped with 0.5% formic acid. Products of the reaction were captured while unreacted substrates were washed away, prior to MALDI mass spectrometry detection and analysis. Percent enzyme activity was calculated based on no inhibitor DMSO control as 100% activity. EC50 values were determined in GraphPad Prism 8 using the [inhibitor] vs. response—Variable slope (four parameters) function.
(§1) Compounds of Formula (I) show activity in this assay. A value of ‘A’ in the table below indicates an IC50 of <1 nM, a value of ‘B’ indicates an IC50≥1 nM to ≤100 nM, and a value of ‘C’ indicates an IC50 value of >100 nM.

HepG2 hepatoma cells = test: Cell proliferation assay HepG2 (CellTiter-Glo, 7 days); assay type: cell-based; details: Homo sapiens, 168 h; HepG2, 7 days, cell viability CellTiter-Glo 2.0
Method: (§2) HepG2 hepatoma cells (ATCC, HB-8065) were maintained in DMEM with high glucose (Lonza, 12-914F) supplemented with 10% fetal bovine serum (FBS; Biowest, S181B-500) and 2 mM L-glutamine (Biowest, X0551-100) at 37° C. and 5% CO2. A549 lung carcinoma cells (ATCC, CCL-185) were maintained in F-12K medium (ThermoFisher 21127030) supplemented with 10% FBS at 37° C. and 5% CO2. Exponentially growing HepG2 or A549 were plated in white, clear-bottom 96-well plates (Corning, 3903) at a cell density of 2000 (HepG2) or 350 (A549) cells per well in 199 μL of HepG2 medium. Next, 1 μL of a 5-fold 9-point dilution series of test compound in DMSO was added to the different wells. Cells were incubated at 37° C. 5% CO2 for 7 days. Cell viability was assessed on day 7 with the CellTiter-Glo 2.0 Cell Viability assay kit (Promega, G9243) to quantify the intracellular amounts of ATP: first, 100 μL of cell culture medium was removed from each well, next 100 μL of CellTiter-Glo® 2.0 Reagent was added and plates were shaken for 2 minutes on an orbital shaker. After 10 minutes stabilization at room temperature, read-out was performed on a ThermoFisher VarioSkan Lux plate reader. Counts were normalized to DMSO control (0% inhibition) and the cytotoxic control (100% inhibition) and EC50 values were determined in GraphPad Prism 8 using the [Agonist] vs. response—Variable slope (four parameters) function.
(§3) As shown by the data of Table 2, compounds of Formula (I) have activity in this assay. A value of ‘A’ in the table below indicates an EC50 of <20 nM, a value of ‘B’ indicates an EC50≥20 nM to <100 nM, a value of ‘C’ indicates an EC50 value of EC50≥100 nM to <1000 nM and a value of ‘D’ indicates an EC50≥1000 nM

[2] = test system: A549 lung carcinoma cells; test: Cell proliferation assay A549 (CellTiter-Glo, 7 days); assay type: cell-based; details: Homo sapiens, A549, 168 h, A549, 7 days, cell viability CellTiter-Glo 2.0
Method: as §2, §3

PRMT5/MEP50 [3] = molecular target: T1, PRMT5/MEP50; test: PRMT5/MEP50 enzyme inhibition assay, Assay 1 (radioisotope filter binding, 3H-SAM, histone H2A); assay type: biochemical; details: 1 μM 3H-SAM, 5 μM histone H2A, 60 min at 30° C.
Method: Compounds were tested for inhibition of methyltransferase activity in a radioisotope filter binding assay, similar to previously described in A selective inhibitor of PRMT5 with in vivo and in vitro potency in MCL models. Chan-Penebre et al., Nat Chem Biol. (2015) 11(6):432-7. In the standard PRMT5/MEP50 enzyme inhibition assay, compounds were tested in a 10-dose IC50 mode with 3- or 5-fold serial dilution, in singlet, starting at 1, 10, or 100 μM. Control compound, SAH (S-(5′-Adenosyl)-L-homocysteine), was tested in 10-dose IC50 mode with 3-fold serial dilution starting at 100 μM. Reactions were carried out at 1 μM 3H-SAM (PerkinElmer) and 5 μM histone H2A as substrates for methyl transfer. Following a 60 min incubation at 30° C., the reaction was stopped with 20% TCA. Each reaction was spotted on a filter plate (MultiScreen FB Filter plate, Millipore) and washed 5 times in PBS, after which scintillation fluid was added and signal was detected in a scintillation counter. Percent enzyme activity was calculated based on no inhibitor DMSO control as 100% activity. EC50 values were determined in GraphPad Prism 8 using the [inhibitor] vs. response—Variable slope (four parameters) function.
as §1

T1 sequence (O14744 whole entry): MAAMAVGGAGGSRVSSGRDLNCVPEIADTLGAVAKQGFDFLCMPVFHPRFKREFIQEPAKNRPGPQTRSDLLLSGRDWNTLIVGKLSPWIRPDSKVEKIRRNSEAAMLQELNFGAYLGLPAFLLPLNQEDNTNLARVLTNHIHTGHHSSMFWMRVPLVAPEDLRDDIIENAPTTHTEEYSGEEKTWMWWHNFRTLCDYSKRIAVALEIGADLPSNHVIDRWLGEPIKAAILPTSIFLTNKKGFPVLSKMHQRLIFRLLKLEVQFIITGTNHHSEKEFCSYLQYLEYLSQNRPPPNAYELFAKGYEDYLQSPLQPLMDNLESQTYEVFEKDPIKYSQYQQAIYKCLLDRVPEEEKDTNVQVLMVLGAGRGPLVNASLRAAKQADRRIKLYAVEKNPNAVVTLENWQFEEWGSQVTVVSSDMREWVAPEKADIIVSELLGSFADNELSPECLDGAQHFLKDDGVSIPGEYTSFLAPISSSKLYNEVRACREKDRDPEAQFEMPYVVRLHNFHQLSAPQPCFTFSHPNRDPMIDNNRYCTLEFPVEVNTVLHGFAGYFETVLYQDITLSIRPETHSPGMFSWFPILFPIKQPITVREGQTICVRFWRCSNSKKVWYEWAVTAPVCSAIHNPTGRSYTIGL
T1 sequence (Q9BQA1 whole entry partner): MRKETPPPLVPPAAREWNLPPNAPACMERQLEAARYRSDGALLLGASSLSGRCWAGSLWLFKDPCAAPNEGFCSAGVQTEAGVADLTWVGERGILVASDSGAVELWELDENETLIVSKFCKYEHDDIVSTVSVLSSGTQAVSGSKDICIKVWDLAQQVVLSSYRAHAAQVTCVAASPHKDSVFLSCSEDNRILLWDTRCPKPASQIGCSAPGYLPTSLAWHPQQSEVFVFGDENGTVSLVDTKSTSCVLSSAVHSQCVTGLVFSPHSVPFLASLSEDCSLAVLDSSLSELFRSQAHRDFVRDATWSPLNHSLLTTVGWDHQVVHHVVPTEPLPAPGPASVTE

IC50 (PRMT5/MEP50 [1]) [µM]	EC50 (HepG2 hepatoma cells) [µM]	EC50 [2] [µM]	IC50 (PRMT5/MEP50 [3]) [µM]	Structure (SMILES)
> 0.1	0.02 to 0.1	0.02 to 0.1	–	CCCCCOC(=O)Nc1ccc2ccc(CC[C@@]3(C)C[C@@H](c4ccc5c(N)ncnn45)[C@H](O)[C@@H]3O)cc2n1 [Compound 55]
< 0.001	0.02 to 0.1	0.02 to 0.1	–	C[C@]1(CCc2ccc3ccc(N)nc3n2)C[C@@H](n2ccc3c(N)ncnc32)[C@H](O)[C@@H]1O [Compound 24]
< 0.001	0.02 to 0.1	0.02 to 0.1	–	C[C@]1(CCc2ccc3cc(C#N)c(N)nc3c2)C[C@@H](n2ccc3c(N)ncnc32)[C@H](O)[C@@H]1O [Compound 27]
< 0.001	≥ 1	≥ 1	–	Cc1cnc2cc(OC[C@@]34C[C@@H]3[C@@H](n3ccc5c(N)ncnc53)[C@H](O)[C@@H]4O)ccn12 [Compound 16]
–	≥ 1	≥ 1	–	Nc1nc2cc(OC[C@@H]3[C@@H](O)[C@@H](O)[C@]4(n5ccc6c(N)ncnc65)C[C@@H]34)ccc2cc1Br (racemic) [Compound 17, rac-(2S,3R,4R,5S)-4-[(2-amino-3-bromo-7-quinolyl)oxymethyl]-1-(4-aminopyrrolo[2,3-d]pyrimidin-7-yl)bicyclo[3.1.0]hexane-2,3-diol]
< 0.001	< 0.02	< 0.02	< 0.001	C=C1[C@@H](n2ccc3c(N)ncnc32)[C@H](O)[C@H](O)[C@H]1CCc1ccc2cc(Br)c(N)nc2c1 [Compound 4]
0.001 to 0.1	≥ 1	≥ 1	0.001 to 0.1	C[C@@H]1[C@H](CCc2ccc3ccc(N)nc3c2)[C@@H](O)[C@@H](O)[C@@H]1n1ccc2c(N)ncnc21 [Compound 6]
< 0.001	–	–	< 0.001	C[C@]1(CCc2ccc3cc(Br)c(N)nc3c2)C[C@@H](n2ccc3c(N)ncnc32)[C@H](O)[C@@H]1O [Compound 1]
< 0.001	< 0.02	< 0.02	< 0.001	Nc1nc2cc(CC[C@@]34C[C@@H]3[C@@H](n3ccc5c(N)ncnc53)[C@H](O)[C@@H]4O)ccc2cc1Br [Compound 2]
< 0.001	–	–	–	Nc1ccc2ccc(CC[C@@]3(F)C[C@@H](n4ccc5c(N)ncnc54)[C@H](O)[C@@H]3O)cc2n1 [Compound 35, (1S,2S,3R,5R)-5-(4-amino-7H-pyrrolo[2,3-d]pyrimidin-7-yl)-3-(2-(2-aminoquinolin-7-yl)ethyl)-3-fluorocyclopentane-1,2-diol]
< 0.001	< 0.02	< 0.02	–	C[C@]1(CCc2ccc3cc(Br)c(N)nc3c2)C[C@@H](c2ccc3c(N)ncnn23)[C@H](O)[C@@H]1O [Compound 59]
> 0.1	0.1 to 1	0.1 to 1	> 0.1	C=C1[C@@H](n2ccc3c(N)ncnc32)[C@H](O)[C@H](O)[C@H]1CCc1ccc2cc(Br)c(Cl)nc2c1 [Compound 3]
< 0.001	< 0.02	< 0.02	–	C[C@]1(CCc2ccc3cc(C(F)F)c(N)nc3c2)C[C@@H](n2ccc3c(N)ncnc32)[C@H](O)[C@@H]1O [Compound 23]
–	–	< 0.02	–	C#C[C@]1(CCc2ccc3cc(Br)c(N)nc3c2)C[C@@H](n2ccc3c(N)ncnc32)[C@H](O)[C@@H]1O [Compound 63]
< 0.001	< 0.02	< 0.02	–	C[C@]1(CCc2ccc3cc(Cl)c(N)nc3c2)C[C@@H](n2ccc3c(N)ncnc32)[C@H](O)[C@@H]1O [Compound 18]
> 0.1	≥ 1	≥ 1	–	CC(C)C(=O)O[C@H]1[C@H](n2ccc3c(N)ncnc32)C[C@](C)(CCc2ccc3nc(N)ccc3c2)[C@H]1OC(=O)C(C)C [Compound 26-A]
< 0.001	0.1 to 1	0.1 to 1	< 0.001	C[C@H]1[C@H](CCc2ccc3ccc(N)nc3c2)[C@@H](O)[C@@H](O)[C@@H]1n1ccc2c(N)ncnc21 [Compound 5]
< 0.001	0.02 to 0.1	0.1 to 1	–	C[C@]1(CCc2ccc3cc(Cl)c(N)nc3c2)C[C@@H](n2ccc3c(N)ncnc32)[C@H](O)[C@]1(C)O [Compound 28]
< 0.001	–	–	–	C[C@]1(CCc2cc(F)c3cc(Cl)c(N)nc3c2)C[C@@H](n2ccc3c(N)ncc(F)c32)[C@H](O)[C@@H]1O [Compound 34, (1S,2R,3S,5R)-3-[2-(2-amino-3-chloro-5-fluoro-7-quinolyl)ethyl]-5-(4-amino-7-fluoro-pyrrolo[3,2-c]pyridin-1-yl)-3-methyl-cyclopentane-1,2-diol]
–	–	< 0.02	–	COC[C@]1(CCc2cc(F)c3cc(Cl)c(N)nc3c2)C[C@@H](c2ccc3c(N)ncnn23)[C@H](O)[C@@H]1O [Compound 64]
–	< 0.02	< 0.02	–	C[C@]1(CCc2cc(F)c3cc(Cl)c(N)nc3c2)C[C@@H](c2ccc3c(N)ncnn23)[C@H](O)[C@@H]1O [Compound 57]
< 0.001	< 0.02	< 0.02	–	C[C@]1(CCc2cc(F)c3cc(Cl)c(N)nc3c2)C[C@@H](n2ccc3c(N)nc(Cl)nc32)[C@H](O)[C@@H]1O [Compound 53]
< 0.001	–	–	–	C[C@]1(CCc2cc(F)c3ccc(N)nc3c2)C[C@@H](n2ccc3c(N)ncc(F)c32)[C@H](O)[C@@H]1O [Compound 42, (1S,2R,3S,5R)-3-(2-(2-amino-5-fluoroquinolin-7-yl)ethyl)-5-(4-amino-7-fluoro-1H-pyrrolo[3,2-c]pyridin-1-yl)-3-methylcyclopentane-1,2-diol]
< 0.001	< 0.02	0.02 to 0.1	–	Cn1c(N)nc2cc(CC[C@@]3(C)C[C@@H](n4ccc5c(N)ncnc54)[C@H](O)[C@@H]3O)ccc2c1=O [Compound 29]
< 0.001	< 0.02	< 0.02	–	C[C@]1(CCc2ccc3cc(Br)c(N)nc3c2)C[C@@H](n2ccc3c(N)ncc(F)c32)[C@H](O)[C@@H]1O [Compound 50]
–	< 0.02	< 0.02	–	COC[C@]1(CCc2ccc3cc(Br)c(N)nc3c2)C[C@@H](n2ccc3c(N)ncnc32)[C@H](O)[C@@H]1O [Compound 58]
–	–	< 0.02	–	C=C[C@]1(CCc2ccc3cc(Br)c(N)nc3c2)C[C@@H](n2ccc3c(N)ncnc32)[C@H](O)[C@@H]1O [Compound 62]
